# pKd: −log10 of the molar value.
# Target: T1, VEGFR-2 (Homo sapiens, UniProt P35968)
# T1 construct: gene KDR
# Test: SPR with VEGFR-2 immobilized on sensor chip, compound […]
# Assay type: binding
# T1 sequence (P35968 20-1356): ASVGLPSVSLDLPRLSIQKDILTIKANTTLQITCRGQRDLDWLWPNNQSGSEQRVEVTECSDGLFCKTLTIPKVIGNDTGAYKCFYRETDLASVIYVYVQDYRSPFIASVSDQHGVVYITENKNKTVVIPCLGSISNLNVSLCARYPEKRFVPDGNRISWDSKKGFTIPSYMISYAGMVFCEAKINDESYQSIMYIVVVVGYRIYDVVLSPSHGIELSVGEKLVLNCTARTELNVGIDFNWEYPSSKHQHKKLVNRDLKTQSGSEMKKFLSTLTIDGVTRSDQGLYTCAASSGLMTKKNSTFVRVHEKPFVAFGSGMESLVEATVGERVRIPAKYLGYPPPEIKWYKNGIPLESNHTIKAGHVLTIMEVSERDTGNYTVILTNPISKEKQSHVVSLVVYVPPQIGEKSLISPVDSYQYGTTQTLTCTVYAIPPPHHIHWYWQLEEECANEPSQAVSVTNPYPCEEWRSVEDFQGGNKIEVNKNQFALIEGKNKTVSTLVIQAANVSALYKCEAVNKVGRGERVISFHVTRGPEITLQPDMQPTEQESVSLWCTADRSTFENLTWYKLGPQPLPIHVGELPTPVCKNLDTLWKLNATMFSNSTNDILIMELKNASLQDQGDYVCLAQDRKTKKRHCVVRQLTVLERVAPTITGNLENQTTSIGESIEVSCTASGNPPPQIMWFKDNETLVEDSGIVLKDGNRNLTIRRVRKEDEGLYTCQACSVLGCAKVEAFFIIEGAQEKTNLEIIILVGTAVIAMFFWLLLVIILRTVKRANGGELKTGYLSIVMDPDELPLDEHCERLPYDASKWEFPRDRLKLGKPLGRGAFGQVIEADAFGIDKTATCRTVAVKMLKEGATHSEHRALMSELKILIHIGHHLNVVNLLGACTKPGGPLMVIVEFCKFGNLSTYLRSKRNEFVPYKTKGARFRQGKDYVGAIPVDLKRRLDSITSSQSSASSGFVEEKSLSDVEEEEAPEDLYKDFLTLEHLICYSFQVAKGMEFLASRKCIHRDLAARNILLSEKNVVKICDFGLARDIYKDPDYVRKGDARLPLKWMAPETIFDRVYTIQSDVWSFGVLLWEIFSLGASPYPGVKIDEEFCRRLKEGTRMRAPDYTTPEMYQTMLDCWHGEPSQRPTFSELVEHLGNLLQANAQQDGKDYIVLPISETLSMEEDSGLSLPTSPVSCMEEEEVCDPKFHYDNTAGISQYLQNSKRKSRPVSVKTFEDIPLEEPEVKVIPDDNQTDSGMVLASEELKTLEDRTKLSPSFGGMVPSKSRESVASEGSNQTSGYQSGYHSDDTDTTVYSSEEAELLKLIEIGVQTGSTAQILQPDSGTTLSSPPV
compound,measurement,value
CC1=C(C)C2=CC(=O)c3c(c(O)c4occ(C)c4c3O)C2(C)CC1 (stereo not shown) [ajuforrestin A],pKd,4.35

# Source: article PMC12383317, “Ajuforrestin A Inhibits Tumor Proliferation and Migration by Targeting the STAT3/FAK Signaling Pathways and VEGFR-2” (Biology, 2025)
